Results reported in US20150133454A1, “NANOSTRUCTURED MUCOADHESIVE MICROPARTICLES” (SNU R&DB FOUNDATION, priority 2012, published 2015).

Tests used:
[1] = system: Intra ocular pressure (IOP) of the rabbit eye; experiment: Therapeutic effect: decrease in IOP after administration of drug-loaded formulations; format: in vivo; settings: topical, 556.5 μg dorzolamide (25 μl of Trusopt 2%)
Method: The formulation of microparticles as prepared in Examples 6-1 and 6-2 was administered to the rabbit eye according to Example 4 and IOP was measured as described in Example 5.
For testing therapeutic effect by BRT, a total of 7 samples were used. […] For testing therapeutic effect by dorzolamide, 25 μl of Trusopt 2% (MSD, USA), PVA tablet (just containing 556.5 μg of dorzolamide 556.5 μg without any microparticles) and four different types of microparticles prepared as described above containing 556.5 μg dorzolamide were used for the test.
Then, a device for measuring IOP called Tonopen as described in Example 5 was used to measure IOP before the administration and 0.5 h˜13 h after the administration to confirm the efficacy of the drug.

[2] = Pharmacokinetic analysis: brimonidine concentration in aqueous humor; format: in vivo; settings: brimonidine in rabbit aqueous humor after topical administration
Method: Seven different formulations loaded with brimonidine prepared as described in Example 6-1 were topically administered to the rabbit eye and pharmacokinetics of the drug administered was examined as described below from the aqueous humor taken at a specified time in FIG. 12 after the administration. Specifically, the rabbit was generally anesthetized as described in Example 4 at the specified time after the administration and 50 μl of Aqueous humor (AH) was obtained from the rabbit eye using 1 ml syringe with 30 gauge needle, which was then used for SPE (Solid Phase Extraction) and HPLC analysis. First, Brimonidine Stock solution was prepared at the final concentration of […] in distilled water, from which 2000, 1000, 800, 600, 400, 200, 100, and 50 μg/ml of Brimonidine solution were prepared. For the calibration, 25 μl of AH from no treatment control, 25 μl Stock Solution (2000, 1000, 800, 600, 400, 200, 100, 50 μg/ml), 50 μl IS (Internal standard, clonidine)(50 μg/ml) and 200 μl of PBS (pH=8) were mixed and centrifuged at 11000×g for 10 min. and 100 μl of the supernatant was used for SPE analysis.
For the sample from the rabbit eye treated with the drug, 50 μl of AH, 50 μl of IS (50 μg/ml) and 200 μl of PBS (pH=8) were mixed and centrifuged at 11000×g for 10 min and 100 μl of the supernatant was used for SPE analysis. SPE (Bond-Eluct-C18, 100 mg, 1 ml, Agilent Technologies) analysis was proceed as below. Before the sample injection, it was washed with MeOH (1 ml) and distilled water (1 ml). Each sample for the calibration and for the analysis was then injected and washed with 1 ml of PBS and eluted with 1 ml of 70% acetonitrile, followed by evaporation for 3 hrs at 40° C. using SpeedVac (Thermo Savant SPD 2010 SpeedVac System, Thermo Electron Corporation, USA). […]
HPLC (Agilent 1260 Series, Agilent Technologies, CA, USA) was used for determining the concentration, in which 50 μl of sample was injected and analyzed under the following condition: Mobile phase=20 mM phosphate buffer (pH=2.5) : MeOH=9:1, flow rate 1 ml/min, 248 nm

CCN[C@H]1C[C@H](C)S(=O)(=O)c2sc(S(N)(=O)=O)cc21 [Dorzolamide solution, Dorzolamide]
time for which the formulation was effective in decreasing IOP (Dorzolamide) [1]: 5 h

Brimonidine Tartrate [BRT solution]
AUC [2]: 795 ng·h/mL | Cmax [2]: 692 ng/mL | tmax [2]: 40 min
